Several values for one entry are separate records, joined by “and”; a condition that tells them apart may be missing. Identical values can stand only once.
Assay: molar heat capacity at constant pressure
Settings: 101.33 kPa, Vacuum adiabatic calorimetry

CCC[n+]1ccn(C)c1.[Br-] [1-methyl-3-propylimidazolium bromide]
Settings	molar heat capacity at constant pressure
147.83 K, Crystal 2	133.2 J/K/mol
148.11 K, Glass	140.8 J/K/mol
149.71 K, Crystal 2	134.1 J/K/mol
149.83 K, Crystal 2	134.2 J/K/mol
150 K, Crystal 2	134.3 J/K/mol
150 K, Glass	141.9 J/K/mol
150.11 K, Glass	141.9 J/K/mol
151.82 K, Crystal 2	135.2 J/K/mol
151.83 K, Crystal 2	135.2 J/K/mol
152.11 K, Glass	143.1 J/K/mol
153.84 K, Crystal 2	136.2 J/K/mol
153.93 K, Crystal 2	136.3 J/K/mol
154.12 K, Glass	144.2 J/K/mol
155.85 K, Crystal 2	137.2 J/K/mol
156.04 K, Crystal 2	137.3 J/K/mol
156.13 K, Glass	145.4 J/K/mol
157.86 K, Crystal 2	138.3 J/K/mol
158.13 K, Glass	146.5 J/K/mol
158.16 K, Crystal 2	138.4 J/K/mol
159.86 K, Crystal 2	139.3 J/K/mol
160 K, Crystal 2	139.3 J/K/mol
160 K, Glass	147.5 J/K/mol
160.14 K, Glass	147.6 J/K/mol
160.27 K, Crystal 2	139.5 J/K/mol
161.87 K, Crystal 2	140.2 J/K/mol
162.15 K, Glass	148.7 J/K/mol
162.38 K, Crystal 2	140.6 J/K/mol
163.88 K, Crystal 2	141.3 J/K/mol
164.17 K, Glass	149.8 J/K/mol
164.5 K, Crystal 2	141.6 J/K/mol
165.89 K, Crystal 2	142.3 J/K/mol
166.18 K, Glass	151 J/K/mol
166.61 K, Crystal 2	142.6 J/K/mol
167.9 K, Crystal 2	143.3 J/K/mol
168.19 K, Glass	152.2 J/K/mol
168.73 K, Crystal 2	143.7 J/K/mol
169.91 K, Crystal 2	144.4 J/K/mol
170 K, Crystal 2	144.4 J/K/mol
170 K, Glass	153.2 J/K/mol
170.21 K, Glass	153.3 J/K/mol
170.84 K, Crystal 2	144.8 J/K/mol
171.92 K, Crystal 2	145.4 J/K/mol
172.22 K, Glass	154.5 J/K/mol
172.95 K, Crystal 2	146.1 J/K/mol
173.94 K, Crystal 2	146.6 J/K/mol
174.24 K, Glass	155.6 J/K/mol
175.06 K, Crystal 2	147.4 J/K/mol
175.95 K, Crystal 2	147.9 J/K/mol
176.26 K, Glass	156.8 J/K/mol
177.17 K, Crystal 2	148.7 J/K/mol
177.96 K, Crystal 2	149.1 J/K/mol
178.28 K, Glass	158 J/K/mol
179.28 K, Crystal 2	149.8 J/K/mol
179.98 K, Crystal 2	150.2 J/K/mol
180 K, Crystal 2	150.2 J/K/mol
180 K, Glass	159.1 J/K/mol
180.3 K, Glass	159.2 J/K/mol
181.39 K, Crystal 2	150.9 J/K/mol
182 K, Crystal 2	151.2 J/K/mol
182.32 K, Glass	160.4 J/K/mol
183.49 K, Crystal 2	152 J/K/mol
184.02 K, Crystal 2	152.2 J/K/mol
184.34 K, Glass	161.7 J/K/mol
185.6 K, Crystal 2	153 J/K/mol
186.04 K, Crystal 2	153.2 J/K/mol
186.37 K, Glass	162.9 J/K/mol
187.7 K, Crystal 2	154.1 J/K/mol
188.06 K, Crystal 2	154.3 J/K/mol
188.39 K, Glass	164.2 J/K/mol
189.8 K, Crystal 2	155.2 J/K/mol
190 K, Crystal 2	155.3 J/K/mol
190 K, Glass	164.3 J/K/mol
190.08 K, Crystal 2	155.3 J/K/mol
190.42 K, Glass	165.5 J/K/mol
191.9 K, Crystal 2	156.2 J/K/mol
192.1 K, Crystal 2	156.3 J/K/mol
192.45 K, Glass	166.9 J/K/mol
194 K, Crystal 2	157.3 J/K/mol
194.12 K, Crystal 2	157.4 J/K/mol
194.48 K, Glass	168.3 J/K/mol
196.1 K, Crystal 2	158.4 J/K/mol
196.15 K, Crystal 2	158.4 J/K/mol
196.52 K, Glass	169.7 J/K/mol
198.17 K, Crystal 2	159.4 J/K/mol
198.2 K, Crystal 2	159.4 J/K/mol
198.56 K, Glass	171.3 J/K/mol
200 K, Crystal 2	160.4 J/K/mol
200 K, Glass	171.3 J/K/mol
200.2 K, Crystal 2	160.5 J/K/mol
200.29 K, Crystal 2	160.5 J/K/mol
200.61 K, Glass	173 J/K/mol
202.22 K, Crystal 2	161.6 J/K/mol
202.39 K, Crystal 2	161.7 J/K/mol
202.66 K, Glass	174.7 J/K/mol
204.25 K, Crystal 2	162.6 J/K/mol
204.48 K, Crystal 2	162.8 J/K/mol
204.71 K, Glass	177.1 J/K/mol
206.28 K, Crystal 2	163.8 J/K/mol
206.57 K, Crystal 2	163.9 J/K/mol
206.79 K, Glass	179.5 J/K/mol
208.31 K, Crystal 2	164.9 J/K/mol
208.66 K, Crystal 2	165.1 J/K/mol
208.84 K, Glass	183.4 J/K/mol
210 K, Crystal 2	165.9 J/K/mol
210 K, Glass	183.6 J/K/mol
210.35 K, Crystal 2	166 J/K/mol
210.75 K, Crystal 2	166.3 J/K/mol
210.87 K, Glass	189.3 J/K/mol
212.38 K, Crystal 2	167.3 J/K/mol
212.84 K, Crystal 2	167.5 J/K/mol
212.85 K, Glass	201.5 J/K/mol
214.41 K, Crystal 2	168.5 J/K/mol
214.71 K, Liquid	229.7 J/K/mol
214.92 K, Crystal 2	168.8 J/K/mol
216.44 K, Crystal 2	169.7 J/K/mol
216.52 K, Liquid	256.1 J/K/mol
217 K, Crystal 2	170.1 J/K/mol
218.48 K, Crystal 2	170.9 J/K/mol
218.48 K, Liquid	258.4 J/K/mol
219.08 K, Crystal 2	171.3 J/K/mol
220 K, Crystal 2	171.8 J/K/mol
220 K, Liquid	258.4 J/K/mol
220.51 K, Crystal 2	172.1 J/K/mol
220.52 K, Liquid	259.6 J/K/mol
221.15 K, Crystal 2	172.5 J/K/mol
222.55 K, Crystal 2	173.3 J/K/mol
223.22 K, Crystal 2	173.7 J/K/mol
224.59 K, Crystal 2	174.5 J/K/mol
225.29 K, Crystal 2	175 J/K/mol
226.63 K, Crystal 2	175.8 J/K/mol
227.36 K, Crystal 2	176.2 J/K/mol
228.67 K, Crystal 2	177 J/K/mol
229.42 K, Crystal 2	177.5 J/K/mol
230 K, Crystal 2	177.8 J/K/mol
230 K, Liquid	261.5 J/K/mol
230.71 K, Crystal 2	178.2 J/K/mol
231.48 K, Crystal 2	178.7 J/K/mol
233.47 K, Crystal 2	180 J/K/mol
233.54 K, Crystal 2	180 J/K/mol
235.59 K, Crystal 2	181.3 J/K/mol
235.81 K, Crystal 2	181.5 J/K/mol
237.64 K, Crystal 2	182.5 J/K/mol
237.86 K, Crystal 2	182.7 J/K/mol
239.69 K, Crystal 2	183.9 J/K/mol
239.9 K, Crystal 2	184.1 J/K/mol
240 K, Crystal 2	184.1 J/K/mol
240 K, Liquid	263.8 J/K/mol
241.74 K, Crystal 2	185.1 J/K/mol
241.94 K, Crystal 2	185.3 J/K/mol
243.78 K, Crystal 2	186.4 J/K/mol
243.99 K, Crystal 2	186.6 J/K/mol
245.82 K, Crystal 2	187.8 J/K/mol
246.03 K, Crystal 2	187.9 J/K/mol
247.86 K, Crystal 2	189.1 J/K/mol
248.07 K, Crystal 2	189.3 J/K/mol
249.89 K, Crystal 2	190.6 J/K/mol
250 K, Crystal 2	190.6 J/K/mol
250 K, Liquid	266.2 J/K/mol
250.11 K, Crystal 2	190.7 J/K/mol
251.92 K, Crystal 2	192 J/K/mol
252.16 K, Crystal 2	192.2 J/K/mol
253.95 K, Crystal 2	193.4 J/K/mol
254.2 K, Crystal 2	193.6 J/K/mol
255.97 K, Crystal 2	194.9 J/K/mol
256.25 K, Crystal 2	195.1 J/K/mol
257.98 K, Crystal 2	196.4 J/K/mol
258.29 K, Crystal 2	196.7 J/K/mol
260 K, Crystal 2	198 J/K/mol and 198.1 J/K/mol
260 K, Liquid	269.1 J/K/mol
260.33 K, Crystal 2	198.3 J/K/mol
262 K, Crystal 2	199.6 J/K/mol
262.37 K, Crystal 2	199.9 J/K/mol
264.01 K, Crystal 2	201.2 J/K/mol
264.42 K, Crystal 2	201.7 J/K/mol
266.06 K, Crystal 2	203.2 J/K/mol
266.47 K, Crystal 2	203.4 J/K/mol
268.16 K, Crystal 2	205.1 J/K/mol
268.52 K, Crystal 2	205.3 J/K/mol
270 K, Crystal 2	206.7 J/K/mol
270 K, Liquid	272 J/K/mol
270.26 K, Crystal 2	207.1 J/K/mol
270.57 K, Crystal 2	207.1 J/K/mol
272.36 K, Crystal 2	209.2 J/K/mol
272.62 K, Crystal 2	209.4 J/K/mol
274.45 K, Crystal 2	211.5 J/K/mol
274.67 K, Crystal 2	211.5 J/K/mol
276.54 K, Crystal 2	213.9 J/K/mol
276.71 K, Crystal 2	213.9 J/K/mol
278.62 K, Crystal 2	216.6 J/K/mol
278.75 K, Crystal 2	216.6 J/K/mol
280 K, Crystal 2	216.4 J/K/mol
280 K, Liquid	275.1 J/K/mol
280.68 K, Crystal 2	219.5 J/K/mol
280.79 K, Crystal 2	219.5 J/K/mol
282.74 K, Crystal 2	222.7 J/K/mol
282.84 K, Crystal 2	222.7 J/K/mol
284.78 K, Crystal 2	226.4 J/K/mol
284.88 K, Crystal 2	226.6 J/K/mol
286.82 K, Crystal 2	230.9 J/K/mol
288.82 K, Crystal 2	236.3 J/K/mol
290 K, Crystal 2	227.1 J/K/mol
290 K, Liquid	278.2 J/K/mol
290.81 K, Crystal 2	242.8 J/K/mol
292.77 K, Crystal 2	251.5 J/K/mol
294.69 K, Crystal 2	262.7 J/K/mol
295.89 K, Liquid	280.2 J/K/mol
296.57 K, Crystal 2	278.5 J/K/mol
297.86 K, Liquid	280.6 J/K/mol
298.15 K, Liquid	280.8 J/K/mol
298.39 K, Crystal 2	300.9 J/K/mol
299.92 K, Liquid	281.4 J/K/mol
300 K, Liquid	281.4 J/K/mol
300.12 K, Crystal 2	334.9 J/K/mol
301.74 K, Crystal 2	387.4 J/K/mol
301.97 K, Liquid	282 J/K/mol
303.2 K, Crystal 2	470.7 J/K/mol
304.02 K, Liquid	282.8 J/K/mol
304.47 K, Crystal 2	613.7 J/K/mol
305.51 K, Crystal 2	844.2 J/K/mol
306.07 K, Liquid	283.2 J/K/mol
306.32 K, Crystal 2	1193 J/K/mol
306.93 K, Crystal 2	1697 J/K/mol
308.12 K, Liquid	284.1 J/K/mol
309.54 K, Crystal 2	251.4 J/K/mol
309.54 K, Liquid	284.6 J/K/mol
310 K, Liquid	284.7 J/K/mol
310.17 K, Liquid	284.7 J/K/mol
312.01 K, Liquid	285.5 J/K/mol
312.22 K, Liquid	285.3 J/K/mol
314.27 K, Liquid	285.9 J/K/mol
316.32 K, Liquid	286.9 J/K/mol
318.37 K, Liquid	287.5 J/K/mol
320 K, Liquid	288.1 J/K/mol
320.41 K, Liquid	288.2 J/K/mol
322.46 K, Liquid	288.8 J/K/mol
324.5 K, Liquid	289.6 J/K/mol
326.54 K, Liquid	290.4 J/K/mol
328.58 K, Liquid	291 J/K/mol
330 K, Liquid	291.7 J/K/mol
330.62 K, Liquid	291.9 J/K/mol
332.66 K, Liquid	292.7 J/K/mol
334.7 K, Liquid	293.3 J/K/mol
336.73 K, Liquid	294.1 J/K/mol
338.61 K, Liquid	294.7 J/K/mol
340 K, Liquid	295.3 J/K/mol
340.58 K, Liquid	295.5 J/K/mol
342.63 K, Liquid	296.2 J/K/mol
344.68 K, Liquid	297 J/K/mol
346.73 K, Liquid	297.8 J/K/mol
348.78 K, Liquid	298.6 J/K/mol
350 K, Liquid	299.1 J/K/mol
350.82 K, Liquid	299.4 J/K/mol
352.87 K, Liquid	300.3 J/K/mol
354.92 K, Liquid	300.9 J/K/mol
356.97 K, Liquid	301.7 J/K/mol
359.01 K, Liquid	302.5 J/K/mol
360 K, Liquid	303 J/K/mol
361.05 K, Liquid	303.5 J/K/mol
363.1 K, Liquid	304.2 J/K/mol
365.14 K, Liquid	305 J/K/mol
367.18 K, Liquid	305.8 J/K/mol
370 K, Liquid	307 J/K/mol
